Experimental data published in ChEMBL document CHEMBL1124519 (J Med Chem, 1989).

What was measured:
Homo sapiens = organism: Homo sapiens; assay: Half-life period obtained from linear regression of metabolite concentration in Human plasma containing 100 mM phosphate, at pH 7.4; type: ADME
[1] = Half-life period obtained from linear regression of metabolite concentration in aqueous buffer of pH 7.4 at 37 degrees Celsius in 100 mM phosphate buffer.; type: ADME
L1210 = assay: The cytotoxicity (LC99) was evaluated in vitro against L1210 cells obtained from cultured mice.; type: functional, Mus musculus
[2] = Half-life period obtained from linear regression of metabolite concentration in aqueous buffer of pH 7.4 at 37 degrees Celsius in 200 mM phosphate buffer.; type: ADME

Structure (SMILES): O=CCCOP(=O)(NCCCl)NCCCl.O=P1(NCCCl)OCCC(O)N1CCCl
- T1/2 (Homo sapiens): 10 min
- T1/2 [1]: 50 min
- LC99 (L1210): 12.6 µM

Structure (SMILES): O=P(O)(NCCCl)NCCCl [PALIFOSFAMIDE]
- T1/2 [2]: 61 min
- LC99 (L1210): 70 µM
